US6461997B1, “Triazole sulfones having herbicidal activity” (Monsanto Technology LLC, priority 1999, dated 2002)

Columns and labels:
[1] = test system: AGSST (creeping bentgrass); assay: Pre-emergence herbicidal activity, cool season; assay type: in vivo, Agrostis stolonifera; details: GR80 = lowest tested rate (300, 100, 30, 10 g/ha) with 80% or greater inhibition; approx. 14 days after treating; 18/13° C.
Outline: (§1)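 GR80 values derive from percent inhibition relative to untreated plants, read roughly 14 days after sowing and pre-emergence soil-surface treatment (compound in 50:50 acetone/water; rates typically 10, 30, 100, 300 g/ha). Warm-season weeds grew at 30/21° C day/night, cool-season ones at 18/13° C; an asterisk marks activity without reaching 80% at the highest rate.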

STEME (common chickweed) = assay: Pre-emergence herbicidal activity, cool season; assay type: in vivo, Stellaria media; details: lowest tested rate with 80% or greater inhibition; rates 300, 100, 30, 10 g/ha; about 14 days
Outline: as §1

[2] = test system: GALAP (catchweed bedstraw); assay: Pre-emergence herbicidal activity, cool season; assay type: in vivo, Galium aparine; details: lowest tested rate with 80% or greater inhibition; rates 300, 100, 30, 10 g/ha; about 14 days
Outline: as §1

SASKR (russian thistle) = assay: Pre-emergence herbicidal activity, cool season; assay type: in vivo, Salsola kali; details: lowest tested rate with 80% or greater inhibition; rates 300, 100, 30, 10 g/ha; about 14 days
Outline: as §1

[3] = test system: LAMPU (purple deadnettle); assay: Pre-emergence herbicidal activity, cool season; assay type: in vivo, Lamium purpureum; details: lowest tested rate with 80% or greater inhibition; rates 300, 100, 30, 10 g/ha; about 14 days
Outline: as §1

[4] = test system: VERPE (creeping speedwell); assay: Pre-emergence herbicidal activity, cool season; assay type: in vivo, Veronica persicaria; details: lowest tested rate with 80% or greater inhibition; rates 300, 100, 30, 10 g/ha; about 14 days
Outline: as §1

[5] = test system: PANMI (wild proso millet); assay: Pre-emergence herbicidal activity, warm season; assay type: in vivo, Panicum miliaceum; details: GR80 = lowest tested rate (300, 100, 30, 10 g/ha) with 80% or greater inhibition; approx. 14 days after treating; 30/21° C.
Outline: (§2)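 Under 18/13 °C (ALOMY, POLCO) or 30/21 °C (PANMI, DIGSA) day/night, pre-emergence soil-surface treatments at 300, 100, 30 and 10 g/ha were evaluated after roughly 14 days. GR80 reflects percent inhibition relative to untreated plants.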

SINAR (wild mustard) = assay: Pre-emergence herbicidal activity, cool season; assay type: in vivo, Sinapis arvensis; details: lowest tested rate with 80% or greater inhibition; rates 300, 100, 30, 10 g/ha; about 14 days
Outline: as §1

POLCO (wild buckwheat) = assay: Pre-emergence herbicidal activity, cool season; assay type: in vivo, Polygonum convolvulus; details: lowest tested rate with 80% or greater inhibition; rates 300, 100, 30, 10 g/ha; about 14 days
Outline: as §2

DATST (jimsonweed) = assay: Pre-emergence herbicidal activity, warm season; assay type: in vivo, Datura stramonium; details: GR80 = lowest tested rate (300, 100, 30, 10 g/ha) with 80% or greater inhibition; approx. 14 days after treating; 30/21° C.
Description: (§3) Tables 5 to 8 summarize results of tests conducted as described below to determine the pre-emergence herbicidal activity, in the form of a GR80 value, of illustrative compounds of this invention. […] Compounds of the invention were typically applied at rates of 300, 100, 30, and 10 g/ha. Where herbicidal activity was evident but 80% inhibition was not achieved at the highest rate tested, an asterisk (*) is shown in the following tables.
(§4) The pre-emergence tests were conducted by the following procedure. Topsoil was sieved to pass through a 1.27 cm screen. Fertilizer was added to the topsoil and the mixture was then sterilized by heating. The topsoil mixture was placed in a pot and compacted to a depth of 1.0 to 1.25 cm from the top of the pot. Seeds of each of several monocotyledonous and dicotyledonous annual plant species were placed on top of the soil. Additional soil was subsequently placed over the seeds to level-fill the pot. A known amount of each test compound dissolved or suspended in an appropriate organic solvent was diluted with a 50:50 mix of acetone and water and applied to the surface of the soil. After treatment the plants were placed in a greenhouse where they received 0.64 cm of overhead irrigation. All subsequent watering consisted of a light overhead mist and/or subirrigation as needed for germination and growth. Tables 5 and 6 below relate to warm season plant species which were placed after pre-emergence treatment in a greenhouse with a 30/21° C. day/night temperature regime. Tables 7 and 8 below relates to cool season plant species placed after pre-emergence treatment in a greenhouse or growth chamber with an 18/13° C. day/night temperature regime.
(§5) Approximately 14 days after planting and treating, the plants were observed and herbicidal efficacy recorded as percent inhibition by comparison with untreated plants.
(§6) The plant species usually regarded as weeds which were utilized in the tests are identified in the tables below according to the following legend, in which “d” indicates a dicotyledonous species and “m” a monocotyledonous species. All monocotyledonous species included in the tests herein are grasses.

ABUTH (velvetleaf) = assay: Pre-emergence herbicidal activity, warm season; assay type: in vivo, Abutilon theophrasti; details: GR80 = lowest tested rate (300, 100, 30, 10 g/ha) with 80% or greater inhibition; approx. 14 days after treating; 30/21° C.
Description: as §3, §4, §5, §6

SOLNI (black nightshade) = assay: Pre-emergence herbicidal activity, warm season; assay type: in vivo, Solanum nigrum; details: GR80 = lowest tested rate (300, 100, 30, 10 g/ha) with 80% or greater inhibition; approx. 14 days after treating; 30/21° C.
Outline: as §1

SETVI (green foxtail) = assay: Pre-emergence herbicidal activity, cool season; assay type: in vivo, Setaria viridis; details: GR80 = lowest tested rate (300, 100, 30, 10 g/ha) with 80% or greater inhibition; approx. 14 days after treating; 18/13° C.
Outline: as §1

SMILES	Pre-emergence activity (GR80) AGSST [1] [g/ha]	Pre-emergence activity GR80, STEME (STEME (common chickweed))	Pre-emergence activity GR80, GALAP [2]	Pre-emergence activity GR80, SASKR (SASKR (russian thistle))	Pre-emergence activity GR80, LAMPU [3]	Pre-emergence activity GR80, VERPE [4]	Pre-emergence activity (GR80) PANMI [5] [g/ha]	Pre-emergence activity GR80, SINAR (SINAR (wild mustard))	Pre-emergence activity GR80, POLCO (POLCO (wild buckwheat))	Pre-emergence activity (GR80) DATST (DATST (jimsonweed)) [g/ha]	Pre-emergence activity (GR80) ABUTH (ABUTH (velvetleaf)) [g/ha]	Pre-emergence activity (GR80) SOLNI (SOLNI (black nightshade)) [g/ha]	Pre-emergence activity (GR80) SETVI (SETVI (green foxtail)) [g/ha]
CN(Cc1ccccc1)C(=O)n1cnc(S(=O)(=O)C(F)F)n1 [Example 33]	300	100 g/ha	[empty]	300 g/ha	30 g/ha	300 g/ha	300	[empty]	[empty]	300	–	–	–
CN(Cc1ccccc1)C(=O)n1cnc(S(=O)(=O)C(F)(F)Br)n1 [Example 44]	–	[empty]	[empty]	[empty]	[empty]	100 g/ha	300	[empty]	[empty]	–	300	30	–
CCSC(F)(F)S(=O)(=O)c1ncn(C(=O)N2CCOCC2)n1 [Example 48]	–	300 g/ha	300 g/ha	[empty]	[empty]	[empty]	–	[empty]	300 g/ha	300	–	–	–
CCSC(F)(F)S(=O)(=O)c1ncn(C(=O)N(C)Cc2ccccc2)n1 [Example 56]	100	[empty]	[empty]	[empty]	[empty]	[empty]	–	[empty]	[empty]	300	–	–	100
